Reference: patent publication US20020137929A1, “1 - (3-heterocyclylphenyl) isothiourea, -isourea, -guanidine and -amidine herbicidal agents” (Intellectual Property Department, BASF Aktiengesellschaft, priority 1998, published 2002)

Experiments:
[1] = test system: IPOHE (Morningglory, Ivyleaf); test: Postemergence herbicidal evaluation; assay type: in vivo, Ipomoea hederacea; conditions: postemergence
Method in brief: (§1)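 Each compound, dispersed in an acetone/water mix (50/50) carrying 0.5% TWEEN 20, is nozzle-sprayed at 40 psi on approximately two-week-old seedlings at about 0.0156–0.500 kg/ha. Plants are assessed 4–5 weeks afterward on a 0–9 scale relative to control; duplicate tests are averaged.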

[2] = test system: GLXMAW (Soybean, Williams); test: Preemergence herbicidal evaluation; assay type: in vivo, Glycine max, (L.) Merr. cv Williams; conditions: rated 4-5 weeks after treatment, rating scale 0-9
Method in brief: (§2)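 Scores use a 0–9 visual scale covering stand, vigor, malformation, size and chlorosis relative to controls, rated four to five weeks after treatment. Before emergence, soil-planted seeds were sprayed with compound in aqueous acetone at roughly 0.0156–0.500 kg/ha and held in the greenhouse.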

CASOB (Sicklepod) [3] = test: Postemergence herbicidal evaluation; assay type: in vivo, Cassia obtusifolia; conditions: postemergence
Method in brief: as §1

CASOB (Sicklepod) [4] = test: Preemergence herbicidal evaluation; assay type: in vivo, Cassia obtusifolia; conditions: rated 4-5 weeks after treatment, rating scale 0-9
Method in brief: as §2

[5] = test system: IPOHE (Morningglory, Ivyleaf); test: Preemergence herbicidal evaluation; assay type: in vivo, Ipomoea hederacea; conditions: rated 4-5 weeks after treatment, rating scale 0-9
Method in brief: as §2

[6] = test system: CHEAL (Lambsquarters, Common); test: Postemergence herbicidal evaluation; assay type: in vivo, Chenopodium album; conditions: postemergence
Method in brief: as §1

[7] = test system: SAGPY (Arrowhead (Pygmaea)); test: Preemergence weed control under flooded paddy conditions; assay type: in vivo, Sagittaria pygmaea; conditions: rated 3-4 weeks after treatment
Method in brief: (§3)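 Ratings on a 0-9 visual scale cover stand, vigor, malformation, size, chlorosis and overall appearance relative to a control, taken three to four weeks post-treatment. Application was into flood water over freshly sown silt loam at roughly 0.0313 to 0.500 kg/ha.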

[8] = test system: CHEAL (Lambsquarters, Common); test: Preemergence herbicidal evaluation; assay type: in vivo, Chenopodium album; conditions: rated 4-5 weeks after treatment, rating scale 0-9
Method in brief: as §2

ABUTH (Velvetleaf) = test: Preemergence herbicidal evaluation; assay type: in vivo, Abutilon theophrasti; conditions: rated 4-5 weeks after treatment, rating scale 0-9
Method in brief: as §2

[9] = test system: GLXMAW (Soybean, Williams); test: Postemergence herbicidal evaluation; assay type: in vivo, Glycine max, (L.) Merr. cv Williams; conditions: postemergence
Method in brief: as §1

ORYSAT (Rice, Tebonnet) = test: Preemergence herbicidal evaluation; assay type: in vivo, Oryza sativa, (L.) Tebonnet; conditions: rated 4-5 weeks after treatment, rating scale 0-9
Method in brief: as §2

AMBEL (Ragweed, Common) [10] = test: Preemergence herbicidal evaluation; assay type: in vivo, Ambrosia artemisifolia; conditions: rated 4-5 weeks after treatment, rating scale 0-9
Method in brief: as §2

AMBEL (Ragweed, Common) [11] = test: Postemergence herbicidal evaluation; assay type: in vivo, Ambrosia artemisifolia; conditions: postemergence
Method in brief: as §1

ECHCG (Barnyardgrass) = test: Postemergence herbicidal evaluation; assay type: in vivo, Echinochloa crus-galli; conditions: postemergence
Method in brief: as §1

MOOVA (Monochoria) = test: Preemergence weed control under flooded paddy conditions; assay type: in vivo, Monochoria vaginalis; conditions: rated 3-4 weeks after treatment
Method in brief: as §3

[12] = test system: TRZAWR (Wheat, Winter, cv Riband); test: Postemergence herbicidal evaluation; assay type: in vivo, Triticum aestivum; conditions: postemergence
Method in brief: as §1

Cc1ccc(CN2C(=O)CSC2=Nc2cc(-n3c(=O)cc(C(F)(F)F)n(C)c3=O)c(F)cc2Cl)cc1Cl [Compound 149, 3-{4-Chloro-5-{[3-(3-chloro-4-methylbenzyl)-4-oxo-2-thiazolidinylidene]amino}-2-fluorophenyl}-1-methyl-6-(trifluoromethyl)-2,4(1H,3H)-pyrimidinedione]
9.0: Herbicidal rating IPOHE ([1]; rate 0.0156 kg/ha) | Herbicidal rating IPOHE ([1]; rate 0.0313 kg/ha) | Herbicidal rating IPOHE ([1]; rate 0.0625 kg/ha) | Preemergence herbicidal rating CHEAL ([8]; rate 0.2500 kg/ha) | Herbicidal rating AMBEL (AMBEL (Ragweed, Common) [11]; rate 0.0313 kg/ha) | Herbicidal rating AMBEL (AMBEL (Ragweed, Common) [11]; rate 0.0625 kg/ha)
3.5: Herbicidal rating TRZAWR ([12]; rate 0.0313 kg/ha) | Herbicidal rating TRZAWR ([12]; rate 0.0625 kg/ha)
4.0: Herbicidal rating CHEAL ([6]; rate 0.0625 kg/ha) | Herbicidal rating GLXMAW ([9]; rate 0.0156 kg/ha) | Herbicidal rating AMBEL (AMBEL (Ragweed, Common) [11]; rate 0.0156 kg/ha)
2.0: Preemergence herbicidal rating IPOHE ([5]; rate 0.2500 kg/ha) | herbicidal effect rating, SAGPY ([7]; 0.0625 kg/ha) | Preemergence herbicidal rating ORYSAT (ORYSAT (Rice, Tebonnet); rate 0.1250 kg/ha) | Preemergence herbicidal rating ORYSAT (ORYSAT (Rice, Tebonnet); rate 0.2500 kg/ha)
4.5: Herbicidal rating GLXMAW ([9]; rate 0.0313 kg/ha) | Herbicidal rating GLXMAW ([9]; rate 0.0625 kg/ha)
5.0: herbicidal effect rating, MOOVA (MOOVA (Monochoria); 0.0313 kg/ha)
7.0: Preemergence herbicidal rating GLXMAW ([2]; rate 0.2500 kg/ha) | Preemergence herbicidal rating ABUTH (ABUTH (Velvetleaf); rate 0.2500 kg/ha) | herbicidal effect rating, MOOVA (MOOVA (Monochoria); 0.0625 kg/ha) | herbicidal effect rating, MOOVA (MOOVA (Monochoria); 0.1250 kg/ha) | herbicidal effect rating, MOOVA (MOOVA (Monochoria); 0.2500 kg/ha)
0.0: Herbicidal rating CASOB (CASOB (Sicklepod) [3]; rate 0.0156 kg/ha) | Herbicidal rating CASOB (CASOB (Sicklepod) [3]; rate 0.0313 kg/ha) | Herbicidal rating CASOB (CASOB (Sicklepod) [3]; rate 0.0625 kg/ha) | Preemergence herbicidal rating CASOB (CASOB (Sicklepod) [4]; rate 0.1250 kg/ha) | Preemergence herbicidal rating CASOB (CASOB (Sicklepod) [4]; rate 0.2500 kg/ha) | Preemergence herbicidal rating IPOHE ([5]; rate 0.1250 kg/ha) | herbicidal effect rating, SAGPY ([7]; 0.0313 kg/ha) | Preemergence herbicidal rating AMBEL (AMBEL (Ragweed, Common) [10]; rate 0.1250 kg/ha) | Preemergence herbicidal rating AMBEL (AMBEL (Ragweed, Common) [10]; rate 0.2500 kg/ha) | Herbicidal rating ECHCG (ECHCG (Barnyardgrass); rate 0.0156 kg/ha) | Herbicidal rating ECHCG (ECHCG (Barnyardgrass); rate 0.0313 kg/ha) | Herbicidal rating ECHCG (ECHCG (Barnyardgrass); rate 0.0625 kg/ha)
3.0: Preemergence herbicidal rating GLXMAW ([2]; rate 0.1250 kg/ha) | Herbicidal rating CHEAL ([6]; rate 0.0156 kg/ha) | Herbicidal rating CHEAL ([6]; rate 0.0313 kg/ha) | herbicidal effect rating, SAGPY ([7]; 0.1250 kg/ha) | herbicidal effect rating, SAGPY ([7]; 0.2500 kg/ha) | Preemergence herbicidal rating CHEAL ([8]; rate 0.1250 kg/ha) | Preemergence herbicidal rating ABUTH (ABUTH (Velvetleaf); rate 0.1250 kg/ha) | Herbicidal rating TRZAWR ([12]; rate 0.0156 kg/ha)

Cn1c(C(F)(F)F)cc(=O)n(-c2cc(N=C3SCC(=O)N3Cc3cc(Cl)cc(Cl)c3)c(Cl)cc2F)c1=O [Compound 150, 3-{4-Chloro-5-{[3-(3,5-dichlorobenzyl)-4-oxo-2-thiazolidinylidene]amino}-2-fluorophenyl}-1-methyl-6-(trifluoromethyl)-2,4(1H,3H)-pyrimidinedione]
3.0: Herbicidal rating CASOB (CASOB (Sicklepod) [3]; rate 0.0313 kg/ha) | Herbicidal rating CASOB (CASOB (Sicklepod) [3]; rate 0.0625 kg/ha) | Preemergence herbicidal rating AMBEL (AMBEL (Ragweed, Common) [10]; rate 0.1250 kg/ha)
1.0: Herbicidal rating CASOB (CASOB (Sicklepod) [3]; rate 0.0156 kg/ha) | Preemergence herbicidal rating CASOB (CASOB (Sicklepod) [4]; rate 0.1250 kg/ha) | Preemergence herbicidal rating ORYSAT (ORYSAT (Rice, Tebonnet); rate 0.0625 kg/ha) | Preemergence herbicidal rating ORYSAT (ORYSAT (Rice, Tebonnet); rate 0.2500 kg/ha) | Herbicidal rating ECHCG (ECHCG (Barnyardgrass); rate 0.0313 kg/ha)
5.0: Herbicidal rating GLXMAW ([9]; rate 0.0156 kg/ha)
7.0: Preemergence herbicidal rating AMBEL (AMBEL (Ragweed, Common) [10]; rate 0.2500 kg/ha) | Herbicidal rating AMBEL (AMBEL (Ragweed, Common) [11]; rate 0.0156 kg/ha)
0.0: Preemergence herbicidal rating GLXMAW ([2]; rate 0.0313 kg/ha) | Preemergence herbicidal rating GLXMAW ([2]; rate 0.0625 kg/ha) | Preemergence herbicidal rating GLXMAW ([2]; rate 0.1250 kg/ha) | Preemergence herbicidal rating CASOB (CASOB (Sicklepod) [4]; rate 0.0313 kg/ha) | Preemergence herbicidal rating IPOHE ([5]; rate 0.0313 kg/ha) | Preemergence herbicidal rating IPOHE ([5]; rate 0.0625 kg/ha) | herbicidal effect rating, SAGPY ([7]; 0.0313 kg/ha) | Preemergence herbicidal rating ABUTH (ABUTH (Velvetleaf); rate 0.0313 kg/ha) | Preemergence herbicidal rating ORYSAT (ORYSAT (Rice, Tebonnet); rate 0.0313 kg/ha) | Preemergence herbicidal rating AMBEL (AMBEL (Ragweed, Common) [10]; rate 0.0313 kg/ha) | Preemergence herbicidal rating AMBEL (AMBEL (Ragweed, Common) [10]; rate 0.0625 kg/ha)
2.0: Preemergence herbicidal rating GLXMAW ([2]; rate 0.2500 kg/ha) | Preemergence herbicidal rating CASOB (CASOB (Sicklepod) [4]; rate 0.0625 kg/ha) | Preemergence herbicidal rating CASOB (CASOB (Sicklepod) [4]; rate 0.2500 kg/ha) | herbicidal effect rating, SAGPY ([7]; 0.0625 kg/ha) | herbicidal effect rating, SAGPY ([7]; 0.1250 kg/ha) | herbicidal effect rating, SAGPY ([7]; 0.2500 kg/ha) | Preemergence herbicidal rating ORYSAT (ORYSAT (Rice, Tebonnet); rate 0.1250 kg/ha) | Herbicidal rating ECHCG (ECHCG (Barnyardgrass); rate 0.0156 kg/ha) | Herbicidal rating ECHCG (ECHCG (Barnyardgrass); rate 0.0625 kg/ha)
6.0: Herbicidal rating GLXMAW ([9]; rate 0.0625 kg/ha) | herbicidal effect rating, MOOVA (MOOVA (Monochoria); 0.0313 kg/ha)
3.5: Herbicidal rating TRZAWR ([12]; rate 0.0156 kg/ha) | Herbicidal rating TRZAWR ([12]; rate 0.0313 kg/ha) | Herbicidal rating TRZAWR ([12]; rate 0.0625 kg/ha)
9.0: Herbicidal rating IPOHE ([1]; rate 0.0156 kg/ha) | Herbicidal rating IPOHE ([1]; rate 0.0313 kg/ha) | Herbicidal rating IPOHE ([1]; rate 0.0625 kg/ha) | Preemergence herbicidal rating IPOHE ([5]; rate 0.1250 kg/ha) | Preemergence herbicidal rating IPOHE ([5]; rate 0.2500 kg/ha) | Herbicidal rating CHEAL ([6]; rate 0.0156 kg/ha) | Herbicidal rating CHEAL ([6]; rate 0.0313 kg/ha) | Herbicidal rating CHEAL ([6]; rate 0.0625 kg/ha) | Preemergence herbicidal rating CHEAL ([8]; rate 0.0313 kg/ha) | Preemergence herbicidal rating CHEAL ([8]; rate 0.0625 kg/ha) | Preemergence herbicidal rating CHEAL ([8]; rate 0.1250 kg/ha) | Preemergence herbicidal rating CHEAL ([8]; rate 0.2500 kg/ha) | Preemergence herbicidal rating ABUTH (ABUTH (Velvetleaf); rate 0.1250 kg/ha) | Preemergence herbicidal rating ABUTH (ABUTH (Velvetleaf); rate 0.2500 kg/ha) | Herbicidal rating AMBEL (AMBEL (Ragweed, Common) [11]; rate 0.0313 kg/ha) | Herbicidal rating AMBEL (AMBEL (Ragweed, Common) [11]; rate 0.0625 kg/ha) | herbicidal effect rating, MOOVA (MOOVA (Monochoria); 0.0625 kg/ha) | herbicidal effect rating, MOOVA (MOOVA (Monochoria); 0.1250 kg/ha) | herbicidal effect rating, MOOVA (MOOVA (Monochoria); 0.2500 kg/ha)
5.5: Herbicidal rating GLXMAW ([9]; rate 0.0313 kg/ha)
4.0: Preemergence herbicidal rating ABUTH (ABUTH (Velvetleaf); rate 0.0625 kg/ha)
